# Data: patent publication US6461997B1, “Triazole sulfones having herbicidal activity” (Monsanto Technology LLC, priority 1999, dated 2002)
# Tests used:
# POLCO (wild buckwheat) [1] = experiment: Pre-emergence herbicidal activity, cool season; format: in vivo, Polygonum convolvulus; details: lowest tested rate with 80% or greater inhibition; rates 300, 100, 30, 10 g/ha; about 14 days
# Summary of the method: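 Pre-emergence soil-surface spray; rates 300/100/30/10 g/ha; acetone:water 50:50 diluent. Warm-season species (PANMI, DIGSA) grown at 30/21 °C, cool-season species (ALOMY, POLCO) at 18/13 °C. Inhibition scored ~14 d after treatment versus untreated controls → GR80.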
# SASKR (russian thistle) = experiment: Pre-emergence herbicidal activity, cool season; format: in vivo, Salsola kali; details: lowest tested rate with 80% or greater inhibition; rates 300, 100, 30, 10 g/ha; about 14 days
# Summary of the method: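 GR80 values derive from percent inhibition relative to untreated plants, read roughly 14 days after sowing and pre-emergence soil-surface treatment (compound in 50:50 acetone/water; rates typically 10, 30, 100, 300 g/ha). Warm-season weeds grew at 30/21° C day/night, cool-season ones at 18/13° C; an asterisk marks activity without reaching 80% at the highest rate.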
# AMARE (redroot pigweed) = experiment: Pre-plant incorporated (PPI) herbicidal activity, warm season; format: in vivo, Amaranthus retroflexus; details: for PPI activity (GR80) AMARE: pre-plant incorporated, GR80 = lowest tested rate with 80% or greater inhibition, approx. 14 days after treating, 30/21° C.
# Summary of the method: (§1)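 Pots are filled with topsoil, seeded, and topped with cover soil carrying the sprayed, mixed-in compound. After 0.64 cm overhead irrigation, growth proceeds at 30/21° C or 18/13° C day/night with mist or subirrigation. Scoring is percent inhibition relative to untreated controls about two weeks on.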
# ECHCG (barnyardgrass) = experiment: as above; format: in vivo, Echinochloa crus-galli; details: for PPI activity GR80, ECHCG: pre-plant incorporated, lowest tested rate with 80% or greater inhibition, about 14 days
# Summary of the method: as §1
# PANDI (fall panicum) = experiment: as above; format: in vivo, Panicum dichotomiflorum; details: for Percent inhibition PANDI: PPI application
# Summary of the method: as §1
# POLCO (wild buckwheat) [2] = experiment: Pre-plant incorporated (PPI) herbicidal activity, cool season; format: in vivo, Polygonum convolvulus; details: for PPI activity GR80, POLCO: pre-plant incorporated, lowest tested rate with 80% or greater inhibition, about 14 days; for Percent inhibition POLCO: weed, PPI application
# Summary of the method: as §1
# [3] = tested on: VERPE (creeping speedwell); experiment: as above; format: in vivo, Veronica persicaria; details: for PPI activity GR80, VERPE: pre-plant incorporated, lowest tested rate with 80% or greater inhibition, about 14 days
# Summary of the method: as §1
# ALOMY (blackgrass) = experiment: as above; format: in vivo, Alopecurus myosuroides; details: for PPI activity GR80, ALOMY: pre-plant incorporated, lowest tested rate with 80% or greater inhibition, about 14 days
# Summary of the method: as §1
# XANST (cocklebur) = experiment: Pre-plant incorporated (PPI) herbicidal activity, warm season; format: in vivo, Xanthium strumarium; details: PPI application
# Summary of the method: as §1
# wheat (TRZAW) = experiment: Selectivity test, PPI, cool season crop; format: in vivo, Triticum aestivum; details: PPI application
# Summary of the method: (§2)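 Percent inhibition relative to untreated controls, assessed roughly 14 days post-planting. Seeds were covered with a soil layer into which solvent-borne compound had been sprayed and mixed. Plants were then grown at 30/21° C. (warm season) or 18/13° C. (cool season) day/night regimes.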
# oilseed rape (BRSNS) = experiment: Selectivity test, PPI, cool season crop; format: in vivo, Brassica napus; details: PPI application
# Summary of the method: as §2
# [4] = weed, PPI application, 100 g/ha
# [5] = weed, PPI application, 300 g/ha
# [6] = weed, PPI application, 900 g/ha
compound,measurement,setting,value
CCN(CC)C(=O)n1cnc(S(=O)(=O)C(F)(F)SCC(=O)OC)n1 [Example 11],"Pre-emergence activity GR80, POLCO",POLCO (wild buckwheat) [1],[empty]
same,"Pre-emergence activity GR80, SASKR",SASKR (russian thistle),300 g/ha
same,Percent inhibition AMARE,"AMARE (redroot pigweed); PPI application, 10 g/ha",0%
same,Percent inhibition AMARE,"AMARE (redroot pigweed); PPI application, 30 g/ha",90%
same,Percent inhibition AMARE,"AMARE (redroot pigweed); PPI application, 100 g/ha",40%
same,Percent inhibition AMARE,"AMARE (redroot pigweed); PPI application, 300 g/ha",95%
same,Percent inhibition AMARE,"AMARE (redroot pigweed); PPI application, 900 g/ha",100%
same,PPI activity (GR80) AMARE,AMARE (redroot pigweed),100 g/ha
same,Percent inhibition ECHCG,"ECHCG (barnyardgrass); PPI application, 10 g/ha",0%
same,Percent inhibition ECHCG,"ECHCG (barnyardgrass); PPI application, 30 g/ha",0%
same,Percent inhibition ECHCG,"ECHCG (barnyardgrass); PPI application, 100 g/ha",40%
same,Percent inhibition ECHCG,"ECHCG (barnyardgrass); PPI application, 300 g/ha",70%
same,Percent inhibition ECHCG,"ECHCG (barnyardgrass); PPI application, 900 g/ha",99%
same,"PPI activity GR80, ECHCG",ECHCG (barnyardgrass),"* (activity observed, at least at highest rate, but <80% inhibition)"
same,Percent inhibition PANDI,PANDI (fall panicum); 10 g/ha,0%
same,Percent inhibition PANDI,PANDI (fall panicum); 30 g/ha,0%
same,Percent inhibition PANDI,PANDI (fall panicum); 100 g/ha,70%
same,Percent inhibition PANDI,PANDI (fall panicum); 300 g/ha,99%
same,Percent inhibition PANDI,PANDI (fall panicum); 900 g/ha,100%
same,"PPI activity GR80, POLCO",POLCO (wild buckwheat) [2],"* (activity observed, at least at highest rate, but <80% inhibition)"
same,Percent inhibition POLCO,POLCO (wild buckwheat) [2]; 10 g/ha,0%
same,Percent inhibition POLCO,POLCO (wild buckwheat) [2]; 30 g/ha,0%
same,Percent inhibition POLCO,POLCO (wild buckwheat) [2]; 100 g/ha,0%
same,Percent inhibition POLCO,POLCO (wild buckwheat) [2]; 300 g/ha,0%
same,Percent inhibition POLCO,POLCO (wild buckwheat) [2]; 900 g/ha,30%
same,"PPI activity GR80, VERPE",[3],[empty]
same,Percent inhibition VERPE,"[3]; weed, PPI application, 10 g/ha",90%
same,Percent inhibition VERPE,"[3]; weed, PPI application, 30 g/ha",90%
same,Percent inhibition VERPE,[3]; [4],100%
same,Percent inhibition VERPE,[3]; [5],100%
same,Percent inhibition VERPE,[3]; [6],100%
same,"PPI activity GR80, ALOMY",ALOMY (blackgrass),300 g/ha
same,Percent inhibition ALOMY,"ALOMY (blackgrass); weed, PPI application, 10 g/ha",0%
same,Percent inhibition ALOMY,"ALOMY (blackgrass); weed, PPI application, 30 g/ha",0%
same,Percent inhibition ALOMY,ALOMY (blackgrass); [4],20%
same,Percent inhibition ALOMY,ALOMY (blackgrass); [5],45%
same,Percent inhibition ALOMY,ALOMY (blackgrass); [6],100%
same,Percent inhibition XANST,XANST (cocklebur); 10 g/ha,0%
same,Percent inhibition XANST,XANST (cocklebur); 30 g/ha,0%
same,Percent inhibition XANST,XANST (cocklebur); 100 g/ha,0%
same,Percent inhibition XANST,XANST (cocklebur); 300 g/ha,0%
same,Percent inhibition XANST,XANST (cocklebur); 900 g/ha,0%
same,Percent inhibition TRZAW,wheat (TRZAW); 10 g/ha,0%
same,Percent inhibition TRZAW,wheat (TRZAW); 30 g/ha,0%
same,Percent inhibition TRZAW,wheat (TRZAW); 100 g/ha,0%
same,Percent inhibition TRZAW,wheat (TRZAW); 300 g/ha,0%
same,Percent inhibition TRZAW,wheat (TRZAW); 900 g/ha,20%
same,Percent inhibition BRSNS,oilseed rape (BRSNS); 10 g/ha,0%
same,Percent inhibition BRSNS,oilseed rape (BRSNS); 30 g/ha,0%
same,Percent inhibition BRSNS,oilseed rape (BRSNS); 100 g/ha,0%
same,Percent inhibition BRSNS,oilseed rape (BRSNS); 300 g/ha,0%
same,Percent inhibition BRSNS,oilseed rape (BRSNS); 900 g/ha,0%
"C=CCC(F)(F)S(=O)(=O)c1ncn(C(=O)N(CC)CC)n1 [Example 17, 1-(N,N-diethylcarbamoyl)-3-[(1,1-difluoro-3-butenyl)sulfonyl]-1,2,4-triazole]","Pre-emergence activity GR80, POLCO",POLCO (wild buckwheat) [1],100 g/ha
same,"Pre-emergence activity GR80, SASKR",SASKR (russian thistle),100 g/ha
same,inhibition at 10 g/ha,"AMARE (redroot pigweed); Amaranthus retroflexus, PPI application, 10 g/ha, read-out: Percent inhibition AMARE",60%
same,inhibition at 30 g/ha,"AMARE (redroot pigweed); Amaranthus retroflexus, PPI application, 30 g/ha, read-out: Percent inhibition AMARE",95%
same,inhibition at 100 g/ha,"AMARE (redroot pigweed); Amaranthus retroflexus, PPI application, 100 g/ha, read-out: Percent inhibition AMARE",100%
same,inhibition at 300 g/ha,"AMARE (redroot pigweed); Amaranthus retroflexus, PPI application, 300 g/ha, read-out: Percent inhibition AMARE",100%
same,inhibition at 900 g/ha,"AMARE (redroot pigweed); Amaranthus retroflexus, PPI application, 900 g/ha, read-out: Percent inhibition AMARE",100%
same,PPI activity (GR80) AMARE,AMARE (redroot pigweed),10 g/ha
same,inhibition at 10 g/ha,"ECHCG (barnyardgrass); Echinochloa crus-galli, PPI application, 10 g/ha, read-out: Percent inhibition ECHCG",40%
same,inhibition at 30 g/ha,"ECHCG (barnyardgrass); Echinochloa crus-galli, PPI application, 30 g/ha, read-out: Percent inhibition ECHCG",95%
same,inhibition at 100 g/ha,"ECHCG (barnyardgrass); Echinochloa crus-galli, PPI application, 100 g/ha, read-out: Percent inhibition ECHCG",100%
same,inhibition at 300 g/ha,"ECHCG (barnyardgrass); Echinochloa crus-galli, PPI application, 300 g/ha, read-out: Percent inhibition ECHCG",100%
same,inhibition at 900 g/ha,"ECHCG (barnyardgrass); Echinochloa crus-galli, PPI application, 900 g/ha, read-out: Percent inhibition ECHCG",100%
same,"PPI activity GR80, ECHCG",ECHCG (barnyardgrass),30 g/ha
same,"PPI activity GR80, PANDI","PANDI (fall panicum); pre-plant incorporated, lowest tested rate with 80% or greater inhibition, about 14 days",300 g/ha
same,"PPI activity GR80, POLCO",POLCO (wild buckwheat) [2],100 g/ha
same,"PPI activity GR80, VERPE",[3],10 g/ha
same,inhibition at 10 g/ha,"[3]; weed, PPI application, 10 g/ha, read-out: Percent inhibition VERPE",0%
same,inhibition at 30 g/ha,"[3]; weed, PPI application, 30 g/ha, read-out: Percent inhibition VERPE",0%
same,inhibition at 100 g/ha,"[3]; weed, PPI application, 100 g/ha, read-out: Percent inhibition VERPE",0%
same,inhibition at 300 g/ha,"[3]; weed, PPI application, 300 g/ha, read-out: Percent inhibition VERPE",90%
same,inhibition at 900 g/ha,"[3]; weed, PPI application, 900 g/ha, read-out: Percent inhibition VERPE",100%
same,inhibition at 10 g/ha,"ALOMY (blackgrass); Alopecurus myosuroides, weed, PPI application, 10 g/ha, read-out: Percent inhibition ALOMY",50%
same,inhibition at 30 g/ha,"ALOMY (blackgrass); Alopecurus myosuroides, weed, PPI application, 30 g/ha, read-out: Percent inhibition ALOMY",60%
same,inhibition at 100 g/ha,"ALOMY (blackgrass); Alopecurus myosuroides, weed, PPI application, 100 g/ha, read-out: Percent inhibition ALOMY",100%
same,inhibition at 300 g/ha,"ALOMY (blackgrass); Alopecurus myosuroides, weed, PPI application, 300 g/ha, read-out: Percent inhibition ALOMY",90%
same,inhibition at 900 g/ha,"ALOMY (blackgrass); Alopecurus myosuroides, weed, PPI application, 900 g/ha, read-out: Percent inhibition ALOMY",100%
same,"PPI activity GR80, ALOMY",ALOMY (blackgrass),30 g/ha
same,inhibition at 10 g/ha,"XANST (cocklebur); Xanthium strumarium, 10 g/ha, read-out: Percent inhibition XANST",0%
same,inhibition at 30 g/ha,"XANST (cocklebur); Xanthium strumarium, 30 g/ha, read-out: Percent inhibition XANST",0%
same,inhibition at 100 g/ha,"XANST (cocklebur); Xanthium strumarium, 100 g/ha, read-out: Percent inhibition XANST",0%
same,inhibition at 300 g/ha,"XANST (cocklebur); Xanthium strumarium, 300 g/ha, read-out: Percent inhibition XANST",20%
same,inhibition at 900 g/ha,"XANST (cocklebur); Xanthium strumarium, 900 g/ha, read-out: Percent inhibition XANST",100%
same,inhibition at 10 g/ha,"wheat (TRZAW); Triticum aestivum, 10 g/ha, read-out: Percent inhibition TRZAW",0%
same,inhibition at 30 g/ha,"wheat (TRZAW); Triticum aestivum, 30 g/ha, read-out: Percent inhibition TRZAW",0%
same,inhibition at 100 g/ha,"wheat (TRZAW); Triticum aestivum, 100 g/ha, read-out: Percent inhibition TRZAW",10%
same,inhibition at 300 g/ha,"wheat (TRZAW); Triticum aestivum, 300 g/ha, read-out: Percent inhibition TRZAW",30%
same,inhibition at 900 g/ha,"wheat (TRZAW); Triticum aestivum, 900 g/ha, read-out: Percent inhibition TRZAW",60%
same,inhibition at 10 g/ha,"oilseed rape (BRSNS); Brassica napus, 10 g/ha, read-out: Percent inhibition BRSNS",0%
same,inhibition at 30 g/ha,"oilseed rape (BRSNS); Brassica napus, 30 g/ha, read-out: Percent inhibition BRSNS",0%
same,inhibition at 100 g/ha,"oilseed rape (BRSNS); Brassica napus, 100 g/ha, read-out: Percent inhibition BRSNS",0%
same,inhibition at 300 g/ha,"oilseed rape (BRSNS); Brassica napus, 300 g/ha, read-out: Percent inhibition BRSNS",60%
same,inhibition at 900 g/ha,"oilseed rape (BRSNS); Brassica napus, 900 g/ha, read-out: Percent inhibition BRSNS",95%
